Measured values as given in patent US9669005B2, “Use of naringenin in preparing drugs for preventing and/or treatment abdominal aortic aneurysm” (priority 2013, dated 2017).

What was measured:
[1] = system: formed arterial aneurysms in CaPO4 daubed C57 mice; assay: Formed abdominal aortic aneurysms, CaPO4 model, naringenin gavage from 7 days after daubing; type: in vivo
Procedure: In CaPO4 model, we daubed CaPO4 at infrarenal abdominal aortas in 12-week old of male C57 mice (totally 36 mice), and arterial aneurysms were formed 7 days later. Next, the 36 mice were randomly divided into 2 groups: one group was given naringenin (50 mg/kg/day) gavage, and another group was given equal water gavage. Gavage was performed for 2 weeks (8 mice for each group) and 4 weeks (10 mice for each group), respectively.

[2] = system: metalloproteinase NMP-9; assay: Gelatin zymography, ApoE knockout mice after second round of angiotensin II; type: in vivo; conditions: abdominal aortas, naringenin gavage, FIG. 10D
Procedure: […] Blood vessels were cultured for 24 hours using 0.5 ml serum-free medium with high glucose. After the cultured supernatant protein was quantified, mercaptoethanol-free protein sample loading buffer was added, cryopreserved at −80° C. Water was used to prepare gelatin (Sigma-Aldrich, St. Louis, Mo.) into a concentration of 10 mg/ml, which was added to separation gel of protein electrophoresis according to the proportion of 1:10, causing the final concentration of gelatin as 1 mg/ml. Electrophoresis was performed in a voltage of 80V at 4° C. The gel was put into 0.25% Trixon-100 solution, and washing was performed twice in 30 minutes. And then the gelatin was added to incubation solution (50 mM Tris, 0.2M NaCl, 5 mM CaCl2, 0.02% sodium azide), incubated for 24-48 hours at 37° C. Incubated gel was put into Coomassie brilliant blue to stain for 1-2 hours at room temperature, washed for 30 minutes with a solution having 30% methanol and 10% glacial acetic acid, a solution having 20% methanol and 10% glacial acetic acid, and a solution having 10% methanol and 5% glacial acetic acid, respectively, and then analyzed with Odyssey infrared fluorescence scanning system (LI-COR Biosciences, Lincoln, Nebr.). Both NMP-2 and NMP-9 are gelatinases, and can degrade gelatin; the places where gelatin is degraded are white, and other places are still black. […]

O=C1C[C@@H](c2ccc(O)cc2)Oc2cc(O)cc(O)c21 [naringenin]
average diameter of infrarenal abdominal aortas (ex vivo) ([1]; aneurysms formed 7 days after CaPO4, naringenin 50 mg/kg/day gavage 2 weeks, control 1.488±0.42, P<0.05): 0.884±0.33 mm
average diameter of infrarenal abdominal aortas (ex vivo) ([1]; aneurysms formed 7 days after CaPO4, naringenin 50 mg/kg/day gavage 4 weeks, control 1.718±0.64, P<0.05): 0.9935±0.5 mm
activity of metalloproteinase NMP-9 (gelatin zymography) [2]: significantly inhibit
